In ChEMBL document CHEMBL4020724, “Selective HDAC inhibitors with potent oral activity against leukemia and colorectal cancer: Design, structure-activity relationship and anti-tumor activity study” (Eur J Med Chem, 2017):
The source made the active and inactive calls. The calls are words filed in the database; no cut-off is given here.

Assays:
[1] = biological target: Histone deacetylase 1 (Homo sapiens, UniProt Q13547); assay: Inhibition of HDAC1 (unknown origin) using Boc-Lys (acetyl)-AMC as substrate incubated for 10 mins followed by substrate addition measured after 30 mins by fluorescence assay
[2] = biological target: Histone deacetylase 4 (Homo sapiens, UniProt P56524); assay: Inhibition of HDAC4 (unknown origin) using Boc-Lys (triflouroacetyl)-AMC as substrate incubated for 10 mins followed by substrate addition measured after 30 mins by fluorescence assay
[3] = system: HCT-116; assay: cells; details: Homo sapiens, HCT-116, 48 h
[4] = system: U-266; assay: Antiproliferative activity against human U266 cells after 48 hrs by MTT assay; type: functional, cell-based; details: U-266, 48 h
[5] = system: U-937; assay: cells; details: Homo sapiens, U-937, 48 h
Description: Antiproliferative activity against human U937 cells after 48 hrs by MTT assay

[6] = cells; details: Homo sapiens, ES-2, 48 h
Description: Antiproliferative activity against human ES2 cells after 48 hrs by MTT assay

[7] = biological target: Histone deacetylase 3 (Homo sapiens, UniProt O15379); assay: Inhibition of HDAC3 (unknown origin) using Boc-Lys (acetyl)-AMC as substrate incubated for 10 mins followed by substrate addition measured after 30 mins by fluorescence assay
[8] = biological target: T1, Histone deacetylase 8 (Homo sapiens, UniProt Q9BY41); assay: Inhibition of HDAC8 (unknown origin) using Boc-Lys (acetyl)-AMC as substrate incubated for 10 mins followed by substrate addition measured after 30 mins by fluorescence assay
T1 sequence (Q9BY41 whole entry): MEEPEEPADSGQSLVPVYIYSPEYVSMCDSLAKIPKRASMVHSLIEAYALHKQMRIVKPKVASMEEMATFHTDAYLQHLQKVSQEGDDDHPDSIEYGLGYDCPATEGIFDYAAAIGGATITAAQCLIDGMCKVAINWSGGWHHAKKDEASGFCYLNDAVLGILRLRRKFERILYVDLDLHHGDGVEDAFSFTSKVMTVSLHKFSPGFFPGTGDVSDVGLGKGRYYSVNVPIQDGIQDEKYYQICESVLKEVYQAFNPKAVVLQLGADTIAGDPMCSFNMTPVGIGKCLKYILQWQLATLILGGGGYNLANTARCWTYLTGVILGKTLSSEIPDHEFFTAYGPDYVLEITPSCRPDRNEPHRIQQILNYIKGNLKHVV

[9] = biological target: Histone deacetylase 2 (Homo sapiens, UniProt Q92769); assay: Inhibition of HDAC2 (unknown origin) using Boc-Lys (acetyl)-AMC as substrate incubated for 10 mins followed by substrate addition measured after 30 mins by fluorescence assay
[10] = biological target: T2, Protein deacetylase HDAC6 (Homo sapiens, UniProt Q9UBN7); assay: Inhibition of HDAC6 (unknown origin) using Boc-Lys (acetyl)-AMC as substrate incubated for 10 mins followed by substrate addition measured after 30 mins by fluorescence assay
T2 sequence (Q9UBN7 whole entry): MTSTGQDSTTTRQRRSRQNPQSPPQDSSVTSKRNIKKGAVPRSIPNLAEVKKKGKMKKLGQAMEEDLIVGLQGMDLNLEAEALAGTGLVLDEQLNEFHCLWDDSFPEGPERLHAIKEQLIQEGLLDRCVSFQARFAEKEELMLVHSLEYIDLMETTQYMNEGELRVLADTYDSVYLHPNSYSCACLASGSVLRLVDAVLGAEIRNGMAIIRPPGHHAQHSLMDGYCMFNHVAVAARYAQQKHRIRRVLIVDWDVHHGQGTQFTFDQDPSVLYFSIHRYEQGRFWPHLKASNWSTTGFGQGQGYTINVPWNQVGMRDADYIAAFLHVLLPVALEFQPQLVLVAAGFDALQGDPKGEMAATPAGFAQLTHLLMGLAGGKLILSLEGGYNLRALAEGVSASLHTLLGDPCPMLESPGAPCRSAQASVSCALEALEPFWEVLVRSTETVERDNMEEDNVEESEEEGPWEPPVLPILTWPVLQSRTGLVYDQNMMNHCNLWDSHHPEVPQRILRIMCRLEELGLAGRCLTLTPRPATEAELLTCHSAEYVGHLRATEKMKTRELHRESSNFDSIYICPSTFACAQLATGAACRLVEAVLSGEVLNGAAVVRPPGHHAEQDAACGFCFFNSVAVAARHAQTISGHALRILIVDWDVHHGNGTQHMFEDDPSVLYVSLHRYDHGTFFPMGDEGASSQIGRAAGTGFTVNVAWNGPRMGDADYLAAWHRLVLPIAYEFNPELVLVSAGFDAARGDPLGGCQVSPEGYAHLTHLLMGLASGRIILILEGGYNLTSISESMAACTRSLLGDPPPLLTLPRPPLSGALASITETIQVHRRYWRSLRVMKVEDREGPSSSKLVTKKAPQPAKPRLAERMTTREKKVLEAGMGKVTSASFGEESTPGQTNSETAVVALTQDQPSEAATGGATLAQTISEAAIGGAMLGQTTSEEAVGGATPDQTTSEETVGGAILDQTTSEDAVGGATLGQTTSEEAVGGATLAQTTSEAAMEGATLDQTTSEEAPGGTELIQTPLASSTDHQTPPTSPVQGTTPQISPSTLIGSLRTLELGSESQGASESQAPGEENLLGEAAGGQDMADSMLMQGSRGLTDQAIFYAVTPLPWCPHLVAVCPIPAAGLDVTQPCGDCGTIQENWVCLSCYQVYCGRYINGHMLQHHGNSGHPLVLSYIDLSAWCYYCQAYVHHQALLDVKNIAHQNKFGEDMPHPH

[11] = system: HL-60; assay: cells; details: Homo sapiens, HL-60, 48 h
Description: Antiproliferative activity against human HL60 cells after 48 hrs by MTT assay

[12] = Inhibition of class 1 HDAC in human HL60 cells using Boc-Ac-Lys-AMC as substrate incubated for 3 hrs followed by substrate addition measured after 3 hrs by fluorescence assay; type: cell-based; details: HL-60, 3 h
[13] = system: HL-60; assay: Induction of apoptosis in human HL60 cells assessed as increase in cleaved PARP level at 1 to 5 uM after 48 hrs by Western blot analysis; type: functional, cell-based
[14] = system: HL-60; assay: Induction of apoptosis in human HL60 cells assessed as increase in cleaved caspase-3 level at 1 to 5 uM after 48 hrs by Western blot analysis; type: functional, cell-based
[15] = biological target: T3, Histone deacetylase (HDAC1 and HDAC2) (Homo sapiens) (UniProt Q13547+Q92769); assay: Inhibition of HDAC1/2 in human HL60 cells assessed as increase in acetylated histone H3 level at 1 to 5 uM after 48 hrs by Western blot analysis; type: cell-based
[16] = system: HEL; assay: Antiproliferative activity against HEL cells after 48 hrs by MTT assay; type: functional, cell-based; details: Homo sapiens
[17] = biological target: T3, Histone deacetylase (HDAC1 and HDAC2) (Homo sapiens); assay: Inhibition of HDAC1/2 in human HL60 cells assessed as increase in acetylated histone H4 level at 1 to 5 uM after 48 hrs by Western blot analysis; type: cell-based
[18] = system: HL-60; assay: Induction of apoptosis in human HL60 cells assessed as decrease in procaspase-3 level at 1 to 5 uM after 48 hrs by Western blot analysis; type: functional, cell-based
[19] = system: K562; assay: cells; details: Homo sapiens, K562, 48 h
[20] = system: Mus musculus; assay: Toxicity in BALB/c nude mouse xenografted with human HCT116 cells assessed as body weight at 100 mg/kg/day administered via oral gavage for 16 days (reference value: 19.91 +/- 1.26 g); type: organism-based; details: in vivo, 384 h
[21] = system: U-937; assay: Antitumor activity against human U937 cells xenografted in BALB/c nude mouse assessed as tumor growth inhibition at 100 mg/kg/day administered via oral gavage for 13 days measured every 3 days; type: functional; details: U-937, po, read-out: TGI
[22] = system: Mus musculus; assay: Toxicity in BALB/c nude mouse xenografted with human U937 cells assessed as body weight at 100 mg/kg/day administered via oral gavage for 13 days (reference value: 25.39 +/- 1.18 g); type: organism-based; details: in vivo, 312 h
[23] = system: HCT-116; assay: Antitumor activity against human HCT116 cells xenografted in BALB/c nude mouse assessed as relative tumor increment ratio at 100 mg/kg/day administered via oral gavage for 16 days measured every 3 days; type: functional
[24] = system: HCT-116; assay: Antitumor activity against human HCT116 cells xenografted in BALB/c nude mouse assessed as tumor growth inhibition at 100 mg/kg/day administered via oral gavage for 16 days measured every 3 days; type: functional; details: HCT-116, po, read-out: TGI

Sequence of Histone deacetylase 3 (O15379 whole entry): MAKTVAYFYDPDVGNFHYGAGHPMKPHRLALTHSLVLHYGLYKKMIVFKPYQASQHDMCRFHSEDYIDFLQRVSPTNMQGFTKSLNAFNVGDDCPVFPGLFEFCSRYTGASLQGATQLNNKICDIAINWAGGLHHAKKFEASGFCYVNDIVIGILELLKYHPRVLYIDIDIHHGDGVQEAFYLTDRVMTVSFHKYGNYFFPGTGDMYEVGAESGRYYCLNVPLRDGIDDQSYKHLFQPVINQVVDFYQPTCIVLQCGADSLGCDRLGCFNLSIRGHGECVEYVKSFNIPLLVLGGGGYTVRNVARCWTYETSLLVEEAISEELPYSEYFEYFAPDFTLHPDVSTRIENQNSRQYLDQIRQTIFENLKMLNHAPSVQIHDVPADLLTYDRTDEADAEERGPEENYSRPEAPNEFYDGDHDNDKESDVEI
Sequence of Histone deacetylase 2 (Q92769 whole entry): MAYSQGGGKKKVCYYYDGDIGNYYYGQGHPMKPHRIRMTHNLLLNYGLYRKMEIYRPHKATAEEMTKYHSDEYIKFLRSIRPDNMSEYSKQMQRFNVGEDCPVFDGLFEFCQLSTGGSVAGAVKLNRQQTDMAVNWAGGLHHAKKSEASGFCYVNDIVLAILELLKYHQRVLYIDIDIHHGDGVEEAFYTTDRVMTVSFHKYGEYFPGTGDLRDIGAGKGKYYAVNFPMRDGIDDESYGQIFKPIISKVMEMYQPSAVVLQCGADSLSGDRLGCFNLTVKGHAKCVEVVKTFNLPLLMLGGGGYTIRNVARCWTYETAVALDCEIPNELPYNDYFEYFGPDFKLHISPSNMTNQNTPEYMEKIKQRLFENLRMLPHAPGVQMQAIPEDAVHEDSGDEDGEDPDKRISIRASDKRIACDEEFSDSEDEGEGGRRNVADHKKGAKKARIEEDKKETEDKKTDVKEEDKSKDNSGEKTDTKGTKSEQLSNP
Sequence of Histone deacetylase 1 (Q13547 whole entry): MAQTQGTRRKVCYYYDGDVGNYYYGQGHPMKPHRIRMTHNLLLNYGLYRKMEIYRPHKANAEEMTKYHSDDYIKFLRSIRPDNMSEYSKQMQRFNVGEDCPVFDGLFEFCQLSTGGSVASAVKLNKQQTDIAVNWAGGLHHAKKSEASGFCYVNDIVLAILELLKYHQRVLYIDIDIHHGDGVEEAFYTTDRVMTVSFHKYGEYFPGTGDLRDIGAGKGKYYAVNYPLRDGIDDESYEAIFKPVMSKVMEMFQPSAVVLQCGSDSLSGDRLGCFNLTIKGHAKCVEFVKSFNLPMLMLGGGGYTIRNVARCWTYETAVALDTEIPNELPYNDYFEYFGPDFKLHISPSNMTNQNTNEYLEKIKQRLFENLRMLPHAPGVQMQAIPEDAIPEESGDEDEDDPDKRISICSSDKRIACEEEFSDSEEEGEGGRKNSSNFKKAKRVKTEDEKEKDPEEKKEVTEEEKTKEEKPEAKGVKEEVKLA
T3 sequence (Q13547 whole entry, looked up): as the sequence (Q13547 whole entry) above
T3 sequence (Q92769 whole entry, looked up): as the sequence (Q92769 whole entry) above
Sequence of Histone deacetylase 4 (P56524 whole entry): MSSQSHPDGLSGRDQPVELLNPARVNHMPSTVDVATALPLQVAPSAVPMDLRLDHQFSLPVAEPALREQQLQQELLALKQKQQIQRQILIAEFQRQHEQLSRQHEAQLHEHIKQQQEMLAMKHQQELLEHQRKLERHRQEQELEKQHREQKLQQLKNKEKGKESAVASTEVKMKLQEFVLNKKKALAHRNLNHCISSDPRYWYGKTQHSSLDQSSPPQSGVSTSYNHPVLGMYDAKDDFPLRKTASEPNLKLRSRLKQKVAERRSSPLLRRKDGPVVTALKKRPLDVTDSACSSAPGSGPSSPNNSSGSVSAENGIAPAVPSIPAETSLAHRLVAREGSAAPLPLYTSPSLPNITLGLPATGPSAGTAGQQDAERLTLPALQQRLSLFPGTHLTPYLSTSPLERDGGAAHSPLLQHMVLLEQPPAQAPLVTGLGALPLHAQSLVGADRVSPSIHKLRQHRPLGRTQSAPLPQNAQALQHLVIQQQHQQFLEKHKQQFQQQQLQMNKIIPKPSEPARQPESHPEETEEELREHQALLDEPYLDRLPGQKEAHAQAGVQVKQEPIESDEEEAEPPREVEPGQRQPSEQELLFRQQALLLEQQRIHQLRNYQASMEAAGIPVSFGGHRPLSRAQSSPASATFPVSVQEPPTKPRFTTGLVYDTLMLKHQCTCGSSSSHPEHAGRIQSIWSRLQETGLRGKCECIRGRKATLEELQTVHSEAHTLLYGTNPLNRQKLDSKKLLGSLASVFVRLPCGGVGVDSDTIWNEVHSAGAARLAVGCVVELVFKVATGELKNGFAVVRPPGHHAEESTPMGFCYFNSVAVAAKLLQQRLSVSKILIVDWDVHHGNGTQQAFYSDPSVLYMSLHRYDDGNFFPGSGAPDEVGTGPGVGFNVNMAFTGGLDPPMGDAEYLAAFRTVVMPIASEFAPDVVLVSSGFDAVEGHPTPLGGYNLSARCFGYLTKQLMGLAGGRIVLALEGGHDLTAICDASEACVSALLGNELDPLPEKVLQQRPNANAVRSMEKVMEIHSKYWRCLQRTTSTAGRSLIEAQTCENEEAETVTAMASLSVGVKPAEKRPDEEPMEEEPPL

SMILES | IC50 [1] [µM] | IC50 [7] [µM] | IC50 [9] [µM] | IC50 [11] [µM] | IC50 [12] [µM] | also measured
COc1ccc(C(=O)N[C@@H](Cc2c[nH]c3ccccc23)C(=O)NCCCCCC(=O)Nc2cc(-c3cccs3)ccc2N)cc1 | 0.048 | 3.57 | 0.337 |  |  | IC50 [2]: > 100 µM; IC50 [3]: > 20 µM; IC50 [4]: > 20 µM; IC50 [5]: > 20 µM; IC50 [6]: > 20 µM; IC50 [8]: > 100 µM; IC50 [10]: > 100 µM
Nc1ccccc1NC(=O)c1ccc(CNC(=O)[C@H](Cc2c[nH]c3ccccc23)NC(=O)c2cccs2)cc1 |  |  |  | 1.74 | 0.78 | 
Nc1ccccc1NC(=O)c1ccc(CNC(=O)[C@H](Cc2c[nH]c3ccccc23)NC(=O)c2ccco2)cc1 |  |  |  | 2.4 | 0.91 | 
CN(C)c1ccc(C(=O)N[C@@H](Cc2c[nH]c3ccccc23)C(=O)NCc2ccc(C(=O)Nc3ccccc3N)cc2)cc1 |  |  |  | 2.38 | 1.51 | 
COc1ccc(C(=O)N[C@H](COc2ccc(CC(=O)Nc3ccccc3N)cc2)Cc2c[nH]c3ccccc23)cc1 | > 20 | > 20 | > 20 | > 20 | > 10 | 
COc1ccc(C(=O)N[C@@H](Cc2c[nH]c3ccccc23)C(=O)Nc2ccc(C(=O)Nc3ccc(F)cc3N)cc2)cc1 | 0.0917 | 0.167 | 0.121 |  |  | 
COc1ccc(C(=O)N[C@@H](Cc2c[nH]c3ccccc23)C(=O)NCCCCCC(=O)Nc2ccccc2N)cc1 | 0.0586 | 0.0429 | 0.296 |  |  | 
COc1ccc(C(=O)N[C@@H](Cc2c[nH]c3ccccc23)C(=O)NCc2ccc(C(=O)Nc3cc(-c4ccccc4)ccc3N)cc2)cc1 | 0.0584 | 30.9 | 0.311 |  |  | Activity [13]: inactive; IC50 [3]: > 20 µM; Activity [14]: inactive; inhibition [15]: Active; IC50 [4]: > 20 µM; IC50 [16]: > 20 µM; IC50 [5]: > 20 µM; IC50 [6]: > 20 µM; inhibition [17]: Active; Activity [18]: inactive; IC50 [19]: 14 µM
Nc1ccccc1NC(=O)c1ccc(CNC(=O)[C@H](Cc2c[nH]c3ccccc23)NC(=O)c2ccc(C(F)(F)F)cc2)cc1 |  |  |  | 3.09 | 1.98 | 
COc1ccc(C(=O)N[C@@H](Cc2c[nH]c3ccccc23)C(=O)NCc2ccc(C(=O)Nc3ccc(F)cc3N)cc2)cc1 | 0.171 | 0.243 | 0.179 |  |  | 
COc1ccc(C(=O)N[C@H](COc2ccc(C(=O)Nc3ccccc3N)cc2)Cc2c[nH]c3ccccc23)cc1 | 0.0147 | 0.09 | 0.111 |  |  | 
COc1ccc(C(=O)N[C@H](CNCc2ccc(C(=O)Nc3ccccc3N)cc2)Cc2c[nH]c3ccccc23)cc1 | 0.0299 | 0.223 | 0.0212 |  |  | 
COc1ccc(C(=O)N[C@@H](Cc2c[nH]c3ccccc23)C(=O)NCCCCCC(=O)Nc2cc(-c3ccccc3)ccc2N)cc1 | 0.0555 | 5.63 | 0.49 |  |  | IC50 [3]: > 20 µM; IC50 [4]: > 20 µM; IC50 [5]: > 20 µM; IC50 [6]: > 20 µM
Nc1ccccc1NC(=O)c1ccc(CNC(=O)[C@H](Cc2c[nH]c3ccccc23)NC(=O)c2cnccn2)cc1 |  |  |  | 5.85 | 1.02 | 
COc1ccc(C(=O)N[C@@H](Cc2c[nH]c3ccccc23)C(=O)NCCCCCC(=O)Nc2ccc(F)cc2N)cc1 | 0.511 | 0.11 | 0.908 |  |  | IC50 [2]: > 100 µM; IC50 [8]: > 100 µM; IC50 [10]: > 100 µM
O=C(CCCCCCC(=O)Nc1ccccc1)NO [VORINOSTAT] |  |  |  |  |  | Activity [20]: 21.23 g
COc1ccc(C(=O)N[C@@H](Cc2c[nH]c3ccccc23)C(=O)NCc2ccc(C(=O)Nc3cc(-c4cccs4)ccc3N)cc2)cc1 | 0.0588 | 8.01 | 0.32 |  |  | IC50 [3]: > 20 µM; IC50 [4]: > 20 µM; IC50 [16]: > 20 µM; IC50 [5]: > 20 µM; IC50 [6]: > 20 µM
COc1ccc(C(=O)N[C@@H](Cc2c[nH]c3ccccc23)C(=O)Nc2ccc(C(=O)Nc3ccccc3N)cc2)cc1 | 0.0496 | 0.227 | 0.441 | 2.14 | 0.85 | 
Nc1ccccc1NC(=O)c1ccc(CNC(=O)[C@H](Cc2c[nH]c3ccccc23)NC(=O)c2ccccn2)cc1 |  |  |  | 6.09 | 1.61 | 
COc1ccc(C(=O)N[C@H](COc2ccc(/C=C/C(=O)Nc3ccccc3N)cc2)Cc2c[nH]c3ccccc23)cc1 | 0.284 | 0.261 | 0.217 |  |  | 
COc1ccc(C(=O)N[C@@H](Cc2c[nH]c3ccccc23)C(=O)NCc2ccc(C(=O)Nc3ccccc3N)cc2)cc1 | 0.0206 | 0.138 | 0.157 |  |  | Activity [13]: Active; inhibition in vivo at 100 mg/kg/day [21]: 51%; Activity [22]: 25.04 g; Activity [14]: Active; inhibition [15]: Active; T/C [23]: 59%; IC50 [6]: > 20 µM; inhibition [17]: Active; Activity [18]: Active; Activity [20]: 21.59 g; inhibition in vivo at 100 mg/kg/day [24]: 49%
COc1ccc(C(=O)N[C@@H](Cc2c[nH]c3ccccc23)C(=O)Nc2ccc(C(=O)Nc3cc(-c4cccs4)ccc3N)cc2)cc1 | 0.0365 | 62.5 | 0.314 |  |  | 
